According to patent US11014904B2, “1,2,4-triazine-3-amine derivative, preparation method therefor, and use thereof in medicine” (Jiangsu Hengrui Medicine Co., Ltd., priority 2017, dated 2021):

Tests used:
[1] = target: T1, adenosine A2b receptor (A2bR) (Homo sapiens, UniProt P29275); test: Inhibition of the adenosine A2b receptor cAMP signaling pathway in CHO-K1/A2bR cells (HTRF); assay type: cell-based; settings: ethyl carbazole 1 μM, Table 2
T1 construct: expressed in transfected cells; host or cells: CHO-K1
T1 sequence (P29275 1-332): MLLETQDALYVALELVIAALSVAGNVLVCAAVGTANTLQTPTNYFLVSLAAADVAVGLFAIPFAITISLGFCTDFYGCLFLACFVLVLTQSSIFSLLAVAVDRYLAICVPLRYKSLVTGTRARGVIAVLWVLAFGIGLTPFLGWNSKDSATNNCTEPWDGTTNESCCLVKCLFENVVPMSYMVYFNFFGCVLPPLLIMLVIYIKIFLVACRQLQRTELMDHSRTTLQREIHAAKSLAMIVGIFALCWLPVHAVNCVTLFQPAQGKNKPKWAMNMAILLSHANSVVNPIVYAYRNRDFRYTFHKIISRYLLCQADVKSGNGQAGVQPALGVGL
Excerpt: (§1) Determination of the inhibition activity of the compounds of the present invention on the adenosine A2a receptor (A2aR) cAMP signaling pathway, the adenosine A2b receptor (A2bR) cAMP signaling pathway, the adenosine A1 receptor (A1R) cAMP signaling pathway and the adenosine A3 receptor (A3R) cAMP signaling pathway.
(§2) The inhibition activity of the compounds of the present invention on the adenosine A2a receptor (A2aR) cAMP signaling pathway, the adenosine A2b receptor cAMP signaling pathway, the adenosine A1 receptor cAMP signaling pathway and the adenosine A3 receptor cAMP signaling pathway was determined by the following method. The experimental method is briefly described as follows:
2.2 Adenosine A2b Receptor
CHO-K1/A2bR cells were cultured in DMEM/F12 medium containing 10% fetal bovine serum and 1 mg/ml G418. The cells were digested with the cell separation buffer during the experiment. The cells were resuspended in the balanced salt buffer containing 20 mM HEPES and 0.1% bovine serum albumin and counted, and the cell density was adjusted to 10^6 cells/ml. In the 384-well plate, each well was added with 5 μl of cell suspension, and 2.5 μl of test compound (4× concentration) formulated with the balanced salt buffer containing 20 mM HEPES, 0.1% bovine serum albumin, 54 μM rolipram and 2.7 U/ml adenosine deaminase, and the plate was incubated at room temperature for 30 minutes. Each well was then added with 2.5 μl of […] (4× concentration) (Torcis, 1691/10) formulated with the balanced salt buffer containing 20 mM HEPES, 0.1% bovine serum albumin, 54 μM rolipram and 2.7 U/ml adenosine deaminase, and the plate was incubated at room temperature for 30 minutes. The final concentrations of the compounds were: 100000, 10000, 1000, 100, 10, 1, 0.1 and 0 nM. The final concentration of […] was 1 μM. Intracellular cAMP concentration was detected with the cAMP dynamic 2 kit. cAMP-d2 and Anti-cAMP-Eu-Cryptate were diluted respectively with the cAMP lysis buffer at a ratio of 1:4. Each well was added with 5 μl of diluted cAMP-d2, followed by addition of 5 μl of diluted Anti-cAMP-Eu-Cryptate, and the plate was incubated at room temperature in the dark for 1 hour. The HTRF signal values were read by the PHERAstar multi-function microplate reader.

[2] = target: T2, adenosine A1 receptor (A1R) (Homo sapiens, UniProt P30542); test: Inhibition of the adenosine A1 receptor cAMP signaling pathway in CHO-K1/A1R cells (HTRF); assay type: cell-based; settings: for IC50: CHO-K1/A1R cells, cAMP, forskolin 10 μM, CPA 10 nM; for IC50 ratio (A1R/A2aR): selectivity A1R over A2aR
T2 construct: expressed in transfected cells; host or cells: CHO-K1
T2 sequence (P30542 1-326): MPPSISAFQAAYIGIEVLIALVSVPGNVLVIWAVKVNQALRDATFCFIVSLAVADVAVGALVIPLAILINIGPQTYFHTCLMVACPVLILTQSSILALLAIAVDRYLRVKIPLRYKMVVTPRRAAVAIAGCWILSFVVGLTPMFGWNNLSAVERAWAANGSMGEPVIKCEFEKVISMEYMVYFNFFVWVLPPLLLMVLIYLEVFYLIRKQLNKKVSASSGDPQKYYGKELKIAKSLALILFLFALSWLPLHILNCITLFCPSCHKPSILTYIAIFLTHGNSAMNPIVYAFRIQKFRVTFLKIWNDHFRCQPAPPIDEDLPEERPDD
Excerpt: as §1, §2
2.3 Adenosine A1 Receptor
CHO-K1/A1R cells were cultured in DMEM/F12 medium containing 10% fetal bovine serum and 1 mg/ml G418. The cells were digested with the cell separation buffer during the experiment. The cells were then resuspended in the balanced salt buffer containing 20 mM HEPES and 0.1% bovine serum albumin and counted, and the cell density was adjusted to 5×10^5 cells/ml. In the 384-well plate, each well was added with 12.5 μl of cell suspension, and 6.25 μl of test compound (4× concentration) formulated with the balanced salt buffer containing 20 mM HEPES, 0.1% bovine serum albumin, 54 μM rolipram and 2.7 U/ml adenosine deaminase, and the plate was incubated at room temperature for 30 minutes. Each well was then added with 6.25 μl of forskolin and N6-cyclopentyladenosine (4× concentration) formulated with the balanced salt buffer containing 20 mM HEPES, 0.1% bovine serum albumin, 54 μM rolipram and 2.7 U/ml adenosine deaminase, and the plate was incubated at room temperature for 30 minutes. The final concentrations of the compounds were: 100000, 10000, 1000, 100, 10, 1, 0.1 and 0 nM. The final concentrations of forskolin was 10 μM. The final concentrations of CPA was 10 nM. Intracellular cAMP concentration was detected with the cAMP dynamic 2 kit. cAMP-d2 and Anti-cAMP-Eu-Cryptate were diluted respectively with the cAMP lysis buffer at a ratio of 1:4. Each well was added with 12.5 μl of diluted cAMP-d2, followed by addition of 12.5 μl of diluted Anti-cAMP-Eu-Cryptate, and the plate was incubated at room temperature in the dark for 1 hour. The HTRF signal values were read by the PHERAstar multi-function microplate reader.

| SMILES | IC50 [1] [nM] | IC50 [2] [nM] | IC50 ratio (A1R/A2aR) [2] |
| --- | --- | --- | --- |
| [2H]C([2H])([2H])c1ccnc2ccc(-c3nnc(N)nc3-c3ccc(F)cc3)cc12 [Example 22, 5-(4-Fluorophenyl)-6-[4-(trideuteromethyl)-6-quinolinyl]-1,2,4-triazin-3-amine] | 7 | 100 | 334 |
| Cc1ccnc2c(F)cc(-c3nnc(N)nc3-c3ccccc3)cc12 [Example 16, 6-(8-Fluoro-4-methylquinolin-6-yl)-5-phenyl-1,2,4-triazin-3-amine] | 18 | 161 | 803 |
| Cc1ncnc2c(F)cc(-c3nnc(N)nc3-c3ccccc3)cc12 [Example 45, 6-(8-Fluoro-4-methylquinazolin-6-yl)-5-phenyl-1,2,4-triazin-3-amine] | 25 | 930 | 775 |
| Cc1ccnc2c(F)cc(-c3nnc(N)nc3-c3ccc(F)cc3)cc12 [Example 20, 6-(8-Fluoro-4-methylquinolin-6-yl)-5-(4-fluorophenyl)-1,2,4-triazin-3-amine] |  | 617 | 411 |
| Cc1ncnc2ccc(-c3nnc(N)nc3-c3ccccc3)cc12 [Example 15, 6-(4-Methylquinazolin-6-yl)-5-phenyl-1,2,4-triazin-3-amine] | 7 | 248 | 2484 |
| Cc1ccnc2c(F)cc(-c3nnc(N)nc3-c3ccccc3F)cc12 [Example 31, 6-(8-Fluoro-4-methylquinolin-6-yl)-5-(2-fluorophenyl)-1,2,4-triazin-3-amine] |  | 1640 | 431 |
| Nc1nnc(-c2cc(F)c3ncccc3c2)c(-c2ccccc2)n1 [Example 2, 6-(8-Fluoroquinolin-6-yl)-5-phenyl-1,2,4-triazin-3-amine] |  | 133 | 221 |
| Cc1ccnc2ccc(-c3nnc(N)nc3-c3ccc(F)cc3)cc12 [Example 18, 5-(4-Fluorophenyl)-6-(4-methylquinolin-6-yl)-1,2,4-triazin-3-amine] |  | 190 | 948 |
| Nc1nnc(-c2ccc3ncccc3c2)c(-c2ccccc2)n1 [Example 3, 5-Phenyl-6-(quinolin-6-yl)-1,2,4-triazin-3-amine] | 47 | 97 | 139 |
| Cc1ncnc2ccc(-c3nnc(N)nc3-c3ccc(F)cc3)cc12 [Example 19, 5-(4-Fluorophenyl)-6-(4-methylquinazolin-6-yl)-1,2,4-triazin-3-amine] | 25 | 1420 | 3557 |
| CCc1ccnc2ccc(-c3nnc(N)nc3-c3ccc(F)cc3)cc12 [Example 44, 6-(4-Ethylquinolin-6-yl)-5-(4-fluorophenyl)-1,2,4-triazin-3-amine] |  | 646 | 807 |
| [2H]C([2H])([2H])c1ncnc2ccc(-c3nnc(N)nc3-c3ccc(F)cc3)cc12 [Example 52, 5-(4-Fluorophenyl)-6-(4-(methyl-d3)quinazolin-6-yl)-1,2,4-triazin-3-amine] | 14 | 876 | 973 |
| Cc1ccnc2ccc(-c3nnc(N)nc3-c3ccccc3F)cc12 [Example 17, 5-(2-Fluorophenyl)-6-(4-methylquinolin-6-yl)-1,2,4-triazin-3-amine] | 22 | 1350 | 2698 |
